These results are taken from patent US8669249B2, “Poly (ADP-ribose) polymerase (PARP) inhibitors” (Takeda Pharmaceutical Company Limited, priority 2009, dated 2014).

Like-named read-outs stand apart in the source and are kept apart here.

One assay concerns Jurkat cell line. Nature of the assay: PARP cellular chemopotentiation assay (MTS, with/without TMZ). In kind it is cell-based. Conditions: Chemopotentiation factor: ratio of EC50 values of Jurkat cells co-treated without and with 100 μM TMZ; 96 hours. Here is the method:
Potentiation Factor (PF50) Determination from PARP Cellular Chemopotentiation Assay
Jurkat cell line was maintained according to the supplier (American Type Culture Collection (Rockville, Md.)). Cells were seeded in 96-well tissue culture microplates at 10,000 cells per well and cultured for 24 hours prior to addition of compounds, TMZ (Temozolomide) or DMSO (dimethylsulfoxide) vehicle. After 96 hours of treatment, the conversion of MTS ([3-(4,5-dimethylthiazol-2-yl)-5-(3-carboxymethoxyphenyl)-2-(4-sulfophenyl)-2H-tetrazolium, inner salt], Promega, Madison, Wis.) by metabolically active cells was determined through measuring the OD490 nm with a Spectramax microplate reader (Molecular Devices, San Diego, Calif.). To generate concentration-response curves, cells were treated in duplicate with a range of serial compound dilutions (final DMSO concentration was 0.5%) in the absence or presence of 100 μM TMZ chemoreagent. The percentage of viable cells per well was calculated by correction for background and normalizing against DMSO-treated cells. EC50 values for inhibition of cell viability were calculated using XLfit4 MicroSoft Excel curve-fitting software. Chemopotentiation factor PF50 was calculated as the ratio of EC50 values of cells co-treated without and with TMZ, respectively.

The target in assay [1] is T1, catalytic domain of Human PARP (Homo sapiens, UniProt P09874).
T1 construct: The catalytic domain of Human PARP was cloned and prepared; made in house
T1 sequence (P09874 788-1014 limits assumed): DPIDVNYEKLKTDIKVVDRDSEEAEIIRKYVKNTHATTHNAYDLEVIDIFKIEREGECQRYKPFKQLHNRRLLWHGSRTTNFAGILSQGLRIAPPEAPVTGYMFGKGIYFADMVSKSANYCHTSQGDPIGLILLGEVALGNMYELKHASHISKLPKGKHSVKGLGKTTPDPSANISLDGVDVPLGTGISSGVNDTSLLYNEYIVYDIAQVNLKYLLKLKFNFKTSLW
Nature of the assay: Biacore surface plasmon resonance affinity assay. Type of assay: binding. Put shortly:
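Binding at 25° C on Biacore T100: 1 min compound association then 5 min dissociation (50 μL/min) over immobilized PARP catalytic domain, buffer HBS-P plus 1% DMSO, 0.5 mM TCEP, 5 mM MgCl2, 2-fold dilution series. KD derived as koff/kon from fitted association and dissociation phases.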

The target of the next assay is T2, PARP (Homo sapiens, UniProt P09874).
T2 construct: purchased Trevigen 4684-096-K HT (kit); 4684-096-01 (PARP enzyme)
T2 sequence (P09874 whole entry): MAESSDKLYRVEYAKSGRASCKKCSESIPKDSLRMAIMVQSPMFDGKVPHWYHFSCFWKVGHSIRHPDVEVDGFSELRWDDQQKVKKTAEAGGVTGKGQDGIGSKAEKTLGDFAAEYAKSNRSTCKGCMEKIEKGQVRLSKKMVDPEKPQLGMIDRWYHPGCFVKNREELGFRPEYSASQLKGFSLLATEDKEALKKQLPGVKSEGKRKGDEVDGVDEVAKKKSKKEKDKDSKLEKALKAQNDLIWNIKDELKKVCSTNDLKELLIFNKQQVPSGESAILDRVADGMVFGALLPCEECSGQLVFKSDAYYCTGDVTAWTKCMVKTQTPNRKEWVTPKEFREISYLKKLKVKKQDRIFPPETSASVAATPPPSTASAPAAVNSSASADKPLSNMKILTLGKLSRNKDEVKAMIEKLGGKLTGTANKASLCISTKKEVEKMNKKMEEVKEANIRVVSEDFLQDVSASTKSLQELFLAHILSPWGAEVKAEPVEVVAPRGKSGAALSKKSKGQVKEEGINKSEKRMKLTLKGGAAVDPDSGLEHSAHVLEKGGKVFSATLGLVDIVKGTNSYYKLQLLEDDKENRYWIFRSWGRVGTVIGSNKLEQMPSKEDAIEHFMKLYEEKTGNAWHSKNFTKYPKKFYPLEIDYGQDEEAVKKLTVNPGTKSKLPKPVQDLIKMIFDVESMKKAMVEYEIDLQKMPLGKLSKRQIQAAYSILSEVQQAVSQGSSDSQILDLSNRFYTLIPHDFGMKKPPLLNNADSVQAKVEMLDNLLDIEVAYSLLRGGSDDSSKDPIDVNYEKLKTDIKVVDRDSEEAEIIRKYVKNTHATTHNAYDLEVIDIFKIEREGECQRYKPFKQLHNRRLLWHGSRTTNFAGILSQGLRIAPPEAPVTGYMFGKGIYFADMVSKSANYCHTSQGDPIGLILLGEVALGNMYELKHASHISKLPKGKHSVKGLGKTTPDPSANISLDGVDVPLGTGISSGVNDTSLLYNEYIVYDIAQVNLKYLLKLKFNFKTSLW
The assay can be described thus: PARP ELISA (ELISA-based colorimetric PARP/Apoptosis Assay kit, Trevigen). In kind it is biochemical. Conditions: pIC50=-log10 IC50, IC50 in mol/L; inhibition of PARP catalytic activity. On the procedure:
Inhibition Constant (IC50) from PARP ELISA
After 10 minutes of catalysis the reaction is quenched by solvent aspiration followed by irrigation of the assay wells 4 times with phosphate buffered saline (PBS) containing 0.1% t-Octylphenoxypolyethoxyethanol (Triton® X-100). Mouse Anti-poly ADP ribose (PAR) monoclonal antibody, goat antimouse immunoglobulin G (IgG)-horse radish peroxidase (HRP) conjugate and HRP substrate are added according to the manufacture's specifications to generate a colorimetric signal proportional to PARP catalytic activity.
For orientation: ELISA stands for enzyme-linked immunosorbent assay.

[2] abbreviates: pKD=-log10 KD, KD in mol/L, Biacore T100, 25° C., read-out: pKD (converted).

As for `O=C1COc2ccc(CN3CC=C(c4ccc(Cl)cc4)CC3)cc2N1` [Compound 54, 6-((4-(4-Chlorophenyl)-5,6-dihydropyridin-1(2H)-yl)methyl)-2H-benzo[b][1,4]oxazin-3(4H)-one], in the assay on Jurkat cell line, the PF50 result is “≦0.9”. This molecule also returned a Kd in assay [1] of 0.0126 to 0.1 µM.

As for `COc1ccccc1N1CCN(Cc2ccc3c(c2)NC(=O)C(C)O3)CC1` (centres unmarked) [Compound 60, 6-((4-(2-Methoxyphenyl)piperazin-1-yl)methyl)-2-methyl-2H-benzo[b][1,4]oxazin-3(4H)-one], in the assay with Jurkat cell line, the PF50 is 1.0-1.9. In addition, the Kd in assay [1] (setting [2]) was 0.126 to 1 µM. Taken in the same sequence, the figures for `CC1Oc2cc(Cl)c(CN3CCN(c4ccccc4)CC3)cc2NC1=O` (centres unmarked) [Compound 89, 7-Chloro-2-methyl-6-((4-phenylpiperazin-1-yl)methyl)-2H-benzo[b][1,4]oxazin-3(4H)-one] were 1.0-1.9 and 1.26 to 10 µM. Taken in the same sequence, the figures for `Cc1ccc(N2CCN(Cc3ccc4c(c3)NC(=O)C(C)O4)CC2)nc1` (centres unmarked) [Compound 229, 2-Methyl-6-((4-(5-methylpyridin-2-yl)piperazin-1-yl)methyl)-2H-benzo[b][1,4]oxazin-3(4H)-one] were 1.0-1.9 and at most 0.01 µM. Taken in the same sequence, the figures for `Cc1ccc(C2CCN(CCc3ccc4c(c3)NC(=O)CO4)CC2)cc1` [Compound 124, 6-(2-(4-p-tolylpiperidin-1-yl)ethyl)-2H-benzo[b][1,4]oxazin-3(4H)-one] were 1.0-1.9 and 0.126 to 1 µM. Broadly, the IC50 is the concentration that inhibits the measured activity by half. High values mean weaker potency, low ones greater potency. As for `CC1Oc2c(F)cc(CN3CCN(c4ccc(C(=O)O)cc4)CC3)cc2NC1=O` (centres unmarked) [Compound 270, 4-(4-((8-Fluoro-2-methyl-3-oxo-3,4-dihydro-2H-benzo[b][1,4]oxazin-6-yl)methyl)piperazin-1-yl)benzoic acid], the Kd in assay [1] (setting [2]) was 1.26 to 10 µM. Besides, the IC50 at PARP is at least 0.126 µM.

Regarding `COc1cc(CN2CCN(c3ccc(C(=O)O)cc3)CC2)cc2c1OC(C)C(=O)N2` (centres unmarked) [Compound 160, 4-(4-((8-Methoxy-2-methyl-3-oxo-3,4-dihydro-2H-benzo[b][1,4]oxazin-6-yl)methyl)piperazin-1-yl)benzoic acid], in assay [1] (setting [2]), the Kd was 0.126 to 1 µM. Moreover, the concentration for half-maximal inhibition (IC50) against PARP was at least 0.126 µM. As for `CCOC(=O)c1ccc(N2CCN(Cc3cc(F)c4c(c3)NC(=O)C(C)O4)CC2)cc1` (centres unmarked) [Compound 269, Ethyl 4-(4-((8-fluoro-2-methyl-3-oxo-3,4-dihydro-2H-benzo[b][1,4]oxazin-6-yl)methyl)piperazin-1-yl)benzoate], the Kd in assay [1] (setting [2]) was 0.126 to 1 µM. This molecule showed an IC50 at PARP of at least 0.126 µM. Taken in the same sequence, the figures for `CC1Oc2ccc(CN3Cc4ccccc4C3)cc2NC1=O` (centres unmarked) [Compound 239, 6-(Isoindolin-2-ylmethyl)-2-methyl-2H-benzo[b][1,4]oxazin-3(4H)-one] were 0.126 to 1 µM and at least 0.126 µM. For `Cc1cc(CN2CC=C(c3ccc(Cl)cc3)CC2)cc2c1OC(C)C(=O)N2` (centres unmarked) [Compound 263, 6-((4-(4-Chlorophenyl)-5,6-dihydropyridin-1(2H)-yl)methyl)-2,8-dimethyl-2H-benzo[b][1,4]oxazin-3(4H)-one], in that order: over 10 µM and at least 0.126 µM. Taken in the same sequence, the figures for `CC1Oc2c(F)cc(CN3CC=C(c4ccc(Cl)cc4)CC3)cc2NC1=O` (centres unmarked) [Compound 268, 6-((4-(4-Chlorophenyl)-5,6-dihydropyridin-1(2H)-yl)methyl)-8-fluoro-2-methyl-2H-benzo[b][1,4]oxazin-3(4H)-one] were over 10 µM and at least 0.126 µM. Regarding `COc1cc(CN2CCN(c3ccc(C(=O)NC4CC4)cc3C)CC2)cc2c1OC(C)C(=O)N2` (centres unmarked) [Compound 364, N-Cyclopropyl-4-{4-[(8-methoxy-2-methyl-3-oxo-3,4-dihydro-2H-1,4-benzoxazin-6-yl)methyl]piperazin-1-yl}-3-methylbenzamide], the PF50 in the assay with Jurkat cell line amounted to 4365. In turn, `CC1Oc2c(F)cc(CN3CCN(c4ccc(C(=O)NC5CC5)cn4)CC3)cc2NC1=O` (centres unmarked) [Compound 317, N-Cyclopropyl-6-(4-((8-fluoro-2-methyl-3-oxo-3,4-dihydro-2H-benzo[b][1,4]oxazin-6-yl)methyl)piperazin-1-yl)nicotinamide] had an IC50 against PARP of 0.0501 µM. This counts as double-digit nanomolar.

`CC1Oc2ccc(CN3CCN(c4ccc(S(C)(=O)=O)cc4)CC3)cc2NC1=O` (centres unmarked) [Compound 227, 2-Methyl-6-((4-(4-(methylsulfonyl)phenyl)piperazin-1-yl)methyl)-2H-benzo[b][1,4]oxazin-3(4H)-one]: the PF50 in the assay with Jurkat cell line is given as 1.0-1.9.

`CC(C)NC(=O)c1ccc(N2CCN(Cc3cc(F)c4c(c3)NC(=O)C(C)O4)CC2)nc1` (centres unmarked) [Compound 316, 6-(4-((8-Fluoro-2-methyl-3-oxo-3,4-dihydro-2H-benzo[b][1,4]oxazin-6-yl)methyl)piperazin-1-yl)-N-isopropylnicotinamide] gave an IC50 against PARP of 0.1 µM. Consider `CCOC(=O)c1ccc(N2CCN(Cc3cc4c(c(OC)c3)OC(C)C(=O)N4)CC2)cc1` (centres unmarked) [Compound 159, Ethyl 4-(4-((8-methoxy-2-methyl-3-oxo-3,4-dihydro-2H-benzo[b][1,4]oxazin-6-yl)methyl)piperazin-1-yl)benzoate], for which the Kd in assay [1] (setting [2]) is under 0.0316 µM. For the same molecule, the half-maximal inhibitory concentration (IC50) against PARP is at least 0.126 µM. On to `CC1Oc2ccc(CC3CCN(c4ccc(C(=O)NC5CC5)cc4)CC3)cc2NC1=O` (centres unmarked) [Compound 392, N-Cyclopropyl-4-(4-((2-methyl-3-oxo-3,4-dihydro-2I-benzo[b][1,4]oxazin-6-yl)methyl)piperidin-1-yl)benzamide], for which the IC50 at PARP was over 0.2 µM.

Molecule `CNC(=O)c1ccc(N2CCC(Oc3ccc4c(c3)NC(=O)C(C)O4)CC2)cc1` (centres unmarked) [Compound 395, N-Methyl-4-(4-(2-methyl-3-oxo-3,4-dihydro-2H-benzo[b][1,4]oxazin-6-yloxy)piperidin-1-yl)benzamide] had a 50% inhibitory concentration (IC50) on PARP of over 0.2 µM. As to `CC1Oc2ccc(CN(C)Cc3ccc(Cl)cc3)cc2NC1=O` (centres unmarked) [Compound 70, 6-(((4-Chlorobenzyl)(methyl)amino)methyl)-2-methyl-2H-benzo[b][1,4]oxazin-3(4H)-one], in the assay on Jurkat cell line, the PF50 was 1.0-1.9. As for `CC1Oc2ccc(CN3Cc4ccc([N+](=O)[O-])cc4C3)cc2NC1=O` (centres unmarked) [Compound 240, 2-Methyl-6-((5-nitroisoindolin-2-yl)methyl)-2H-benzo[b][1,4]oxazin-3(4H)-one], the Kd in assay [1] (setting [2]) is 0.126 to 1 µM. Moreover, the IC50 against PARP is at least 0.126 µM. For `CC1Oc2c(F)cc(CN3CCN(c4ccc(C(=O)O)cn4)CC3)cc2NC1=O` (centres unmarked) [Compound 313, 6-(4-((8-Fluoro-2-methyl-3-oxo-3,4-dihydro-2H-benzo[b][1,4]oxazin-6-yl)methyl)piperazin-1-yl)nicotinic acid], the IC50 against PARP is over 0.2 µM. Same read-out and setting: next, `CC1Oc2ccc(CN3CCN(c4ccc(NC(=O)C5CC5)cc4)CC3)cc2NC1=O` (centres unmarked) [Compound 247, N-(4-(4-((2-methyl-3-oxo-3,4-dihydro-2H-benzo[b][1,4]oxazin-6-yl)methyl)piperazin-1-yl)phenyl)cyclopropanecarboxamide]: at least 0.126 µM. Consider `CC1Oc2ccc(CN3CCN(c4ccc(C(=O)O)cn4)CC3)cc2NC1=O` (centres unmarked) [Compound 233, 6-(4-((2-Methyl-3-oxo-3,4-dihydro-2H-benzo[b][1,4]oxazin-6-yl)methyl)piperazin-1-yl)nicotinic acid], for which, in assay [1] (setting [2]), the Kd is 1.26 to 10 µM. Besides, the IC50 on PARP is at least 0.126 µM. Regarding `CCN(C)C(=O)c1ccc(N2CCN(Cc3ccc4c(c3)NC(=O)C(C)O4)CC2)cc1` (centres unmarked) [Compound 379, N-Ethyl-N-methyl-4-(4-((2-methyl-3-oxo-3,4-dihydro-2H-benzo[b][1,4]oxazin-6-yl)methyl)piperazin-1-yl)benzamide], the IC50 at PARP was over 0.2 µM. Take `CCNC(=O)c1ccc(N2CCN(Cc3cc4c(c(OC(F)F)c3)OC(C)C(=O)N4)CC2)c(Cl)c1` (centres unmarked) [Compound 405, 3-Chloro-4-(4-((8-(difluoromethoxy)-2-methyl-3-oxo-3,4-dihydro-2H-benzo[b][1,4]oxazin-6-yl)methyl)piperazin-1-yl)-N-ethylbenzamide]: in the assay with Jurkat cell line, the PF50 was found to be 5.3. `CCOC(=O)c1ccc(N2CCC(Oc3ccc4c(c3)NC(=O)C(C)O4)CC2)cc1` (centres unmarked) [Compound 394, Ethyl 4-(4-(2-methyl-3-oxo-3,4-dihydro-2H-benzo[b][1,4]oxazin-6-yloxy)piperidin-1-yl)benzoate]: the IC50 at PARP is over 0.2 µM. For `CC(=O)Nc1ccc(N2CCN(Cc3ccc4c(c3)NC(=O)C(C)O4)CC2)cc1` (centres unmarked) [Compound 245, N-(4-(4-((2-Methyl-3-oxo-3,4-dihydro-2H-benzo[b][1,4]oxazin-6-yl)methyl)piperazin-1-yl)phenyl)acetamide], the IC50 at PARP is at least 0.126 µM.
